Experimental data from ChEMBL document CHEMBL4261580, “Novel antitumor compound optimized from natural saponin Albiziabioside A induced caspase-dependent apoptosis and ferroptosis as a p53 activator through the mitochondrial pathway” (Eur J Med Chem, 2018).
Calls of active or inactive are those of the source. No cut-off for these calls is given here.

Columns and labels:
HCT-116 [1] = experiment: Induction of apoptosis in human HCT116 cells assessed as late apoptotic cells at 5 uM after 72 hrs by Annexin V-FITC/propidium iodide staining-based flow cytometric analysis (reference value: 1.08%); type: functional
HCT-116 [2] = experiment: Induction of apoptosis in human HCT116 cells assessed as formation of apoptotic bodies at 0.31 to 5 uM after 24 hrs by DAPI staining-based fluorescence microscopic method; type: functional, cell-based
A549 = experiment: Antiproliferative activity against human A549 cells after 72 hrs by MTT assay; type: functional, cell-based; conditions: A549, 72 h
HCT-116 [3] = experiment: Cytotoxicity against human HCT116 cells pretreated with Mg2+ followed by compound addition up to 5 uM measured after 72 hrs by MTT assay; type: functional, cell-based
HCT-116 [4] = experiment: Induction of intracellular ROS generation in human HCT116 cells at 0.31 uM after 72 hrs by DCF-DA-dye based fluorescence microscopy (reference value: 2.74%); type: functional
[5] = Antiproliferative activity against adriamycin-resistant human Bel7402/ADR cells after 72 hrs by MTT assay; type: functional; conditions: Bel-7402, 72 h
HCT-116 [6] = experiment: Induction of apoptosis in human HCT116 cells assessed as necrotic cells at 0.31 uM after 72 hrs by Annexin V-FITC/propidium iodide staining-based flow cytometric analysis (reference value: 0.76%); type: functional
HCT-116 [7] = experiment: Induction of intracellular ROS generation in human HCT116 cells after 72 hrs by DCF-DA-dye based fluorescence microscopy; type: functional, cell-based
[8] = Antiproliferative activity against human CCD-841 cells after 72 hrs by MTT assay; type: cell-based; conditions: CCD-841, 72 h
HCT-116 [9] = experiment: Cytotoxicity in human HCT116 cells pretreated with Fe3+ followed by compound addition up to 5 uM measured after 72 hrs by MTT assay; type: functional, cell-based
HCT-116 [10] = experiment: Induction of intracellular ROS generation in human HCT116 cells at 5 uM after 72 hrs by DCF-DA-dye based fluorescence microscopy (reference value: 2.74%); type: functional
HCT-116 [11] = experiment: Disruption of mitochondrial membrane potential in human HCT116 cells assessed as intact mitochondrial membrane at 0.31 uM after 72 hrs by JC1 staining-based flow cytometry method (reference value: 0.33%); type: functional
[12] = target: Cellular tumor antigen p53 (Homo sapiens) (UniProt P04637); experiment: Activation of p53 in human HCT116 cells assessed as upregulation of p53 expression after 48 hrs by Western blot analysis; type: cell-based
HCT-116 [13] = experiment: Cytotoxicity against human HCT116 cells pretreated with Na+ followed by compound addition up to 5 uM measured after 72 hrs by MTT assay; type: functional, cell-based
HepG2 = experiment: Antiproliferative activity against human HepG2 cells after 72 hrs by MTT assay; type: functional, cell-based; conditions: HepG2, 72 h
Mus musculus [14] = experiment: Toxicity in BALB/c nude mouse xenografted with human HCT116 cells assessed as abnormality in heart at 10 to 20 mg/kg, iv administered once per day by hematoxylin and eosin staining-based microscopic method; type: organism-based; conditions: in vivo
HaCaT = experiment: Antiproliferative activity against human HaCaT cells after 72 hrs by MTT assay; type: cell-based
Mus musculus [15] = experiment: Toxicity in BALB/c nude mouse xenografted with human HCT116 cells assessed as abnormality in lung at 10 to 20 mg/kg, iv administered once per day by hematoxylin and eosin staining-based microscopic method; type: organism-based; conditions: in vivo
HCT-116 [16] = experiment: Induction of apoptosis in human HCT116 cells assessed as necrotic cells at 5 uM after 72 hrs by Annexin V-FITC/propidium iodide staining-based flow cytometric analysis (reference value: 0.76%); type: functional
HCT-116 [17] = experiment: Cytotoxicity against human HCT116 cells up to 5 uM after 72 hrs in presence of caspase inhibitor z-VAD-fmk by MTT assay; type: functional, cell-based
HCT-116 [18] = experiment: Antitumor activity against human HCT116 cells xenografted in BALB/c nude mouse assessed as decrease in tumor weight at 20 mg/kg, iv administered once per day for 14 days and measured every 2 days; type: functional; parameters: scale not given: the % may be the effect or the level left
[19] = target: Cellular tumor antigen p53 (Homo sapiens) (UniProt P04637); experiment: Activation of p53 in human HCT116 cells assessed as increase in caspase-9 level up to 5 uM after 48 hrs by Western blot analysis; type: cell-based
HCT-116 [20] = experiment: Induction of apoptosis in human HCT116 cells assessed as late apoptotic cells at 1.25 uM after 72 hrs by Annexin V-FITC/propidium iodide staining-based flow cytometric analysis (reference value: 1.08%); type: functional
HCT-116 [21] = experiment: Induction of lipid peroxidation in human HCT116 cells assessed as increase in MDA levels up to 5 uM; type: functional
HCT-116 [22] = experiment: Induction of intracellular ROS generation in human HCT116 cells at 1.25 uM after 72 hrs by DCF-DA-dye based fluorescence microscopy (reference value: 2.74%); type: functional
HCT-116 [23] = experiment: Induction of apoptosis in human HCT116 cells assessed as early apoptotic cells at 5 uM after 72 hrs by Annexin V-FITC/propidium iodide staining-based flow cytometric analysis (reference value: 5.30%); type: functional
HCT-116 [24] = experiment: Cytotoxicity against human HCT116 cells pretreated with Al3+ followed by compound addition up to 5 uM measured after 72 hrs by MTT assay; type: functional, cell-based
HCT-116 [25] = experiment: Induction of apoptosis in human HCT116 cells assessed as necrotic cells at 1.25 uM after 72 hrs by Annexin V-FITC/propidium iodide staining-based flow cytometric analysis (reference value: 0.76%); type: functional
Mus musculus [26] = experiment: Toxicity in BALB/c nude mouse xenografted with human HCT116 cells assessed as abnormality in liver at 10 to 20 mg/kg, iv administered once per day by hematoxylin and eosin staining-based microscopic method; type: organism-based; conditions: in vivo
HCT-116 [27] = experiment: Disruption of mitochondrial membrane potential in human HCT116 cells assessed as intact mitochondrial membrane at 1.25 uM after 72 hrs by JC1 staining-based flow cytometry method (reference value: 0.33%); type: functional
HCT-116 [28] = experiment: Cytotoxicity against human HCT116 cells transfected with p53-siRNA up to 5 uM after 72 hrs by MTT assay; type: functional, cell-based
HCT-116 [29] = experiment: Disruption of mitochondrial membrane potential in human HCT116 cells assessed as collapse of mitochondrial membrane potential at 0.31 uM after 72 hrs by JC1 staining-based flow cytometry method (reference value: […]); type: functional
HCT-116 [30] = experiment: Induction of apoptosis in human HCT116 cells assessed as viable cells at 1.25 uM after 72 hrs by Annexin V-FITC/propidium iodide staining-based flow cytometric analysis (reference value: 92.86%); type: functional; conditions: HCT-116, 72 h, read-out: Activity
HCT-116 [31] = experiment: Induction of apoptosis in human HCT116 cells assessed as viable cells at 5 uM after 72 hrs by Annexin V-FITC/propidium iodide staining-based flow cytometric analysis (reference value: 92.86%); type: functional; conditions: HCT-116, 72 h, read-out: Activity
HCT-116 [32] = experiment: Cytotoxicity against human HCT116 cells pretreated with ferrostatin-1 followed by compound addition up to 5 uM measured after 72 hrs by MTT assay; type: functional, cell-based
Mus musculus [33] = experiment: Toxicity in BALB/c nude mouse xenografted with human HCT116 cells assessed as abnormality in kidney at 10 to 20 mg/kg, iv administered once per day by hematoxylin and eosin staining-based microscopic method; type: organism-based; conditions: in vivo
HCT-116 [34] = experiment: Induction of apoptosis in human HCT116 cells assessed as late apoptotic cells at 0.31 uM after 72 hrs by Annexin V-FITC/propidium iodide staining-based flow cytometric analysis (reference value: 1.08%); type: functional

Sequence of Cellular tumor antigen p53 (Homo sapiens) (P04637 whole entry, looked up): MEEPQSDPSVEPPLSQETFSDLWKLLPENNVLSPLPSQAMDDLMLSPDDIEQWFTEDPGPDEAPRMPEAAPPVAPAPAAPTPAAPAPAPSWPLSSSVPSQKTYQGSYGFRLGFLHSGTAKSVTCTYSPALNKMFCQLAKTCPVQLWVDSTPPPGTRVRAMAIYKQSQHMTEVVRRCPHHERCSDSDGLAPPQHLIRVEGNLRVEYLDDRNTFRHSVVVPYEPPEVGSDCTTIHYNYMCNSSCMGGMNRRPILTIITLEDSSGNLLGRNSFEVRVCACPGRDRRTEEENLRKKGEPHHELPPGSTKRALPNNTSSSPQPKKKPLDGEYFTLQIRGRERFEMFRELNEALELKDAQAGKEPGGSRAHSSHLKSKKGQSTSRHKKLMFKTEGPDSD

IC50 (A549): 9.18 µM
Activity [12]: Dose-dependent effect
IC50 (HepG2): 6.5 µM
Activity [19]: Active
SMILES: CC(=O)N[C@H]1[C@H](O[C@H]2CC[C@]3(C)[C@H]4CC=C5[C@@H]6CC(C)(C)CC[C@]6(C(=O)OCc6cn(-c7cccc(C(C)=O)c7)nn6)CC[C@@]5(C)[C@]4(C)CC[C@H]3C2(C)C)O[C@H](CO[C@@H]2OC[C@H](O)[C@H](O)[C@@H]2O)[C@@H](O)[C@@H]1O
Activity (HCT-116 [1]): 20.33%
Activity (HCT-116 [2]): Active
Activity (HCT-116 [3]): Active
Activity (HCT-116 [4]): 12.87%
IC50 [5]: 5.83 µM
Activity (HCT-116 [6]): 2.62%
Activity (HCT-116 [7]): Dose-dependent effect
IC50 [8]: 27.8 µM
Activity (HCT-116 [9]): Active
Activity (HCT-116 [10]): 29.71%
Activity (HCT-116 [11]): 10.97%
Activity (HCT-116 [13]): Active
Activity (Mus musculus [14]): Non-Toxic
IC50 (HaCaT): 37.1 µM
Activity (Mus musculus [15]): Non-Toxic
Activity (HCT-116 [16]): 1.86%
Activity (HCT-116 [17]): inactive
Activity (HCT-116 [18]): 71.8%
Activity (HCT-116 [20]): 26.18%
fold change (FC) (HCT-116 [21]): >2
Activity (HCT-116 [22]): 20.35%
Activity (HCT-116 [23]): 39.27%
Activity (HCT-116 [24]): Active
Activity (HCT-116 [25]): 5.35%
Activity (Mus musculus [26]): Non-Toxic
Activity (HCT-116 [27]): 22.64%
Activity (HCT-116 [28]): inactive
Activity (HCT-116 [29]): 89.03%
viability at 1.25 µM (HCT-116 [30]): 65.1%
viability at 5 µM (HCT-116 [31]): 38.5%
Activity (HCT-116 [32]): inactive
Activity (Mus musculus [33]): Non-Toxic
Activity (HCT-116 [34]): 12.51%
